pKd, pKi: −log10 of the molar value. Read-outs that look alike come from different tables or passages of the source. Bridge positions count the residues as written; N and C are the ends. Square brackets hold non-standard residues; d marks the D form. Peptide text beside a SMILES is read from it. R8 = C=CCCCCCC[C@@](C)(N)C(=O)O; S5 = C=CCCC[C@](C)(N)C(=O)O
Columns and labels:
trypsin [1] = test: in vitro; details: isolated enzyme trypsin
Procedure: (§1) Cell permeability of peptide drugs was determined by fluorescence measurement of TAMRA-labeled peptides in 96-well plates and ClarioStar Plus plate reader using BMG ClarioStar MARS software (version 4.20). […] Percent uptake was calculated as background-subtracted fluorescence absorbed by cells/fluorescence of peptide in media-only wells, then made relative to TAMRA-Alkyne. Three biological replicates (n = 3) were performed per cell line per treatment group. Peptide proteolysis was measured using immobilized Trypsin-agarose resin (Thermo Fisher) and quantification by LC-MS. […] In vivo pharmacokinetics were performed by the UACC Analytical Chemistry Shared Resource. […] The mice were fed NIH-31 irradiated pellets (Tekland Premier, Madison, Wisconsin), and reverse osmosis water was freely available. […] The average plasma concentration versus time data were analyzed using PKSolver (version 2.0) by a noncompartmental approach.

trypsin [2] = target: trypsin (Bos taurus, UniProt P00760)
Procedure: as §1

trypsin [3] = test: Trypsin proteolytic resistance assay; details: immobilized trypsin-agarose resin
Procedure: as §1

[4] = Circular dichroism, % alpha-helicity; assay type: physicochemical; details: CD, 20 mM NaH2PO4 pH 7.0, 20 °C, CDSSTR
Procedure: CD experiments were performed on a Jasco J-815 CD spectrometer equipped with a Jasco PTC-423S/15 temperature control and analysis utilizing Spectra Manager (version 2.0). Spectral measurements were made in quartz spectrophotometer cells with an optical cell path length of 1.0 mm (Starna Cells Inc.) using standard collection parameters: 20 °C, 190–260 nm, 0.5 nm step resolution, 50 nm/min scanning speed, 0.5 s response, 1 nm bandwidth, 8 accumulations. […] Secondary structure analysis, including % alpha-helicity, was performed using the CDSSTR method[58] on data reference set 4 basis spectra. The reliability of secondary structure predictions was quantified by the goodness-of-fit of the back-calculated spectrum to the experimental spectrum and reported as a normalized root-mean-square deviation (NRMSD).

FAK FAT domain = target: T1, FAK FAT domain (Homo sapiens, UniProt Q05397); test: SPR binding to immobilized biotinylated FAK FAT
T1 sequence (Q05397 914-1045 limits assumed): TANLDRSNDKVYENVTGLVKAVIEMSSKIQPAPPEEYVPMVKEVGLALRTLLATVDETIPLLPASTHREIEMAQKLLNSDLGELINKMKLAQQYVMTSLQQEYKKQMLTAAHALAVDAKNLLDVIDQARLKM
Procedure: SPR binding studies were performed using biotinylated FAK FAT protein[51]. Briefly, SPR binding assays were performed on a ForteBio Pioneer FE SPR system using SPR running buffer (100 mM Tris-Cl pH 8.0, 200 mM NaCl, and 0.05% Tween-20). […] Desired immobilization levels were determined utilizing the following Eq. 1:1 Rmax=RproteinxMranalyte/MrproteinxVprotein where Rmax is the highest possible response of binding between the analyte and the protein, Rprotein is the change in response by the immobilization of the protein, Mr represents the mass of the analyte or protein, and Vprotein represents the number of binding sites on the protein. A target Rmax of approximately 100 RU was chosen.
All samples were diluted in the SPR buffer to a volume of 200 µl and injected using the OneStep gradient injection system at a flow rate of 150 µl/min. For a bulk standard control, a 3% (w\v) solution of sucrose in SPR buffer was used for injection. […] SPR data analysis utilized Qdat software (ForteBio, version 4.3.2 build 8) for normalization of the baseline prior to injection, channel alignment, and reference channel and blank subtraction.

[5] = target: T2, FAK FAT / TAMRA-paxillin LD2 L10D (Homo sapiens, UniProt Q05397); test: Fluorescence polarization competition (FAK-paxillin) assay; assay type: binding
T2 construct: assay was performed using FAK FAT protein and TAMRA-LD2 L10D peptide
T2 sequence (Q05397 919-1052): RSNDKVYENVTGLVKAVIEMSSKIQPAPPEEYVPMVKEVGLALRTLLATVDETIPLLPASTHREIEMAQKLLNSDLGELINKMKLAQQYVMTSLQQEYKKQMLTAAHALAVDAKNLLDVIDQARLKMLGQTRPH
Procedure: The IC50 was calculated using a four-parameter dose-response inhibition model, with the bottom fit constrained to the lower plateau of the binding curve.

trypsin (Bos taurus, UniProt P00760), sequence (P00760 24-246): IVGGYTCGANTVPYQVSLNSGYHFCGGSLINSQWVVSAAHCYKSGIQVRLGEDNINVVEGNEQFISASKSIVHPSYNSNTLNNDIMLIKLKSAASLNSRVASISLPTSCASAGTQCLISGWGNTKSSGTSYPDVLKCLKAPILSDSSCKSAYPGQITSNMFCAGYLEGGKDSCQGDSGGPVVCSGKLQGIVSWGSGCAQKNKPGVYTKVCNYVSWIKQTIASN

## CC(=O)N[C@@H](CC(N)=O)C(=O)N[C@@H](CC(C)C)C(=O)N[C@@H](CO)C(=O)N[C@@H](CCC(=O)O)C(=O)N[C@@H](CC(C)C)C(=O)N[C@@H](CC(=O)O)C(=O)N[C@@H](CCCNC(=N)N)C(=O)N[C@@H](CC(C)C)C(=O)N[C@@H](CC(C)C)C(=O)N[C@@H](CC(C)C)C(=O)N[C@@H](CCC(=O)O)C(=O)N[C@@H](CC(C)C)C(=O)N[C@@H](CC(N)=O)C(N)=O [LD2, reference compound]
Trypsin [1]
  half-life at 100 µM: 47 min
Trypsin [2]
  trypsin proteolysis t1/2: 46.8 min
Trypsin [3]
  remaining at 0.25 h, 100 µM: 76%
  remaining at 0.5 h, 100 µM: 70%
  remaining at 1 h, 100 µM: 29%
  remaining at 2 h, 100 µM: 16%
  remaining at 3 h, 100 µM: 16%
  remaining at 4 h, 100 µM: 13%
  remaining at 6 h, 100 µM: 0%
  remaining at 7 h, 100 µM: 0%
  remaining at 24 h, 100 µM: 0%
  remaining at 48 h, 100 µM: 0%

## C=CCCCCCC[C@@](C)(NC(=O)[C@H](CC(C)C)NC(=O)[C@H](CC(N)=O)NC(C)=O)C(=O)N[C@@H](CCC(=O)O)C(=O)N[C@@H](CC(C)C)C(=O)N[C@@H](CC(=O)O)C(=O)N[C@@H](CCCNC(=N)N)C(=O)N[C@@H](CC(C)C)C(=O)N[C@@H](CC(C)C)C(=O)N[C@@](C)(CCCC=C)C(=O)N[C@@H](CCC(=O)O)C(=O)N[C@@H](CC(C)C)C(=O)N[C@@H](CC(N)=O)C(N)=O [compound 2013]
[4]
  helical content: 70%
FAK FAT domain; Rep2, read-out: SPR (KD)
  pKd: 4.45

## CC(=O)N[C@@H](CC(N)=O)C(=O)N[C@@H](CC(C)C)C(=O)N[C@]1(C)CCCCCCC=CCCC[C@@](C)(C(=O)N[C@@H](CCC(=O)O)C(=O)N[C@@H](CCC(=O)O)C(=O)N[C@@H](CC(N)=O)C(N)=O)NC(=O)[C@H](CC(C)C)NC(=O)[C@H](CC(C)C)NC(=O)[C@H](CCCNC(=N)N)NC(=O)[C@H](CC(=O)O)NC(=O)[C@H](CCC(=O)O)NC(=O)[C@H](CCC(=O)O)NC1=O [compound 2014] (Ac-NL[R8]EEDRLL[S5]EEN-NH2; staple 3-10)
[5]; 25 µM FAT, 0.1 µM probe, 3 h, mean ± SD, n = 3
  FP Ki: did not bind FAT
[5]; Rep1, read-out: FP (Ki) data
  pKi: < 2.90
FAK FAT domain; Rep1, read-out: SPR (KD)
  pKd: < 3.70
FAK FAT domain; Rep2, read-out: SPR (KD)
  pKd: < 3.70
FAK FAT domain; Rep3, read-out: SPR (KD)
  pKd: < 3.70
FAK FAT domain; Rep4, read-out: SPR (KD)
  pKd: < 3.70
FAK FAT domain; one-site kinetic fit, mean ± SD of n = 2-5 biological replicates, Tris pH 8.0
  SPR KD: did not bind FAT
FAK FAT domain; one-site kinetic fit, mean ± SD of n = 2-5 biological replicates, Tris pH 8.0, read-out: SPR KD
  pKd: < 3.70

From PMC11871066, “Structure-based discovery of hydrocarbon-stapled paxillin peptides that block FAK scaffolding in cancer” (Nature Communications, 2025)
